Test results reported in ChEMBL document CHEMBL3638826, “Heterocyclic compounds as ERK inhibitors” (2015).

Target: Mitogen-activated protein kinase 1 (Mus musculus, UniProt P63085)
Assay: IMAP Assay : Condition 1: Activated ERK2 activity was also determined in the IMAP assay format using the procedure outlined above. 1 μl of 25× compound was added to […] of kinase buffer containing 0.25 ng fully phosphorylated, active Mouse ERK2 protein. Following a 30 minute incubation, the reactions were initiated by addition of 10 μl of kinase buffer containing 1 μM ERK2 IMAP substrate peptide (0.9 μM unlabeled […]-CONH2 and 100 nM […](5-carboxyfluorescein)-CONH2) and 30 μM ATP. Reactions proceeded for 30 minutes before termination by addition of 60 μl IMAP detection beads in binding buffer. Plates were read as above after 30 minute binding equilibration. Active compounds were reconfirmed in an independent assay.

Mitogen-activated protein kinase 1, sequence (P63085 whole entry): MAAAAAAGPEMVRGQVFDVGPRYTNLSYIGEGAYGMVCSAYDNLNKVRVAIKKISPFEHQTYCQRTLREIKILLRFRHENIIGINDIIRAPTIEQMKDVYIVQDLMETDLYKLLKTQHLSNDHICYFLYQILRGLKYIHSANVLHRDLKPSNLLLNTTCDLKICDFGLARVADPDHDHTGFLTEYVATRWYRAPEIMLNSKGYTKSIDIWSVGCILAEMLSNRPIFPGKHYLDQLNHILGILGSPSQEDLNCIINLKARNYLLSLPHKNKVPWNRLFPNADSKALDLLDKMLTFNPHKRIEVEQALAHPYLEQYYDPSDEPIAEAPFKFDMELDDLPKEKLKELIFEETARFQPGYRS

IC50: 35 nM
Structure (SMILES): COc1cccc(F)c1CN1C[C@H](NC(=O)c2ccc3[nH]nc(-c4ccncc4)c3c2)CC[C@H]1C(=O)N1CCC(F)(F)CC1
